This is an account of results in PubChem BioAssay AID220 (DTP/NCI, 2004).

Molecules are shown by their SMILES. “And” between values parts separate entries of the source, which are not always exact repeats. Identical values can stand only once. Inconclusive results are not listed.

This experiment relates to CD8F1 mice, subcutaneous mammary adenocarcinoma, T/C%. Nature of the experiment: NCI In Vivo Anticancer Drug Screen. Data for tumor model Mammary Adenocarcinoma CD8F1 (subcutaneous) in CD8F1. The following applies: higher = larger tumour. The procedure, abridged:
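Tumor-bearing mice, transplantable model; readout survival or tumor size; value = treated (T) / vehicle control (C).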

Where [1] appears, read: endpoint: median tumor weight (est.), dose: 12.5 mg/kg/injection, schedule: Q07DX005 (ip), vehicle: Klucel (hydroxypropylcellulose) (HPC).
Where [2] appears, read: endpoint: median tumor weight (est.), dose: 25.0 mg/kg/injection, schedule: Q07DX005 (ip), vehicle: Klucel (hydroxypropylcellulose) (HPC).

On to `CC/C(=C(\c1ccccc1)c1ccc(OCCN(C)C)cc1)c1ccccc1`, for which the T/C runs as follows: (endpoint: mean tumor weight (est.), dose: 150.0 mg/kg/injection, schedule: Q07DX002 (ip), vehicle: saline) 102 % of control; (endpoint: mean tumor weight (est.), dose: 200.0 mg/kg/injection, schedule: Q07DX002 (ip), vehicle: saline) 100 % of control; (endpoint: mean tumor weight, dose: 100.0 mg/kg/injection, schedule: Q07DX007 (ip), vehicle: saline) 45 % of control; (endpoint: mean tumor weight, dose: 150.0 mg/kg/injection, schedule: Q07DX008 (ip), vehicle: saline) 52 % of control; (endpoint: mean tumor weight, dose: 200.0 mg/kg/injection, schedule: Q07DX007 (ip), vehicle: saline) 15 % of control; (endpoint: mean tumor weight, dose: 200.0 mg/kg/injection, schedule: Q07DX008 (ip), vehicle: saline) 31 % of control. The T/C (endpoint: median tumor weight change, dose: 25.0 mg/kg/injection, schedule: Q01DX001 (ip), vehicle: suspension in saline) was 105 % of control; the T/C (endpoint: median tumor weight change, dose: 50.0 mg/kg/injection, schedule: Q01DX001 (ip), vehicle: suspension in saline) was 111 % of control; the T/C (endpoint: median tumor weight change, dose: 100.0 mg/kg/injection, schedule: Q01DX001 (ip), vehicle: suspension in saline) is 150 % of control; the T/C (endpoint: median tumor weight change, dose: 200.0 mg/kg/injection, schedule: Q01DX001 (ip), vehicle: suspension in saline) was 158 % of control.
Regarding `CCN(CC)CC[n+]1ccc2c(C)c3[nH]c4ccc(O)cc4c3c(C)c2c1`, the T/C runs as follows: (endpoint: median tumor weight change, dose: 7.5 mg/kg/injection, schedule: Q01DX001 (ip), vehicle: suspension in saline) 83 % of control; (endpoint: median tumor weight change, dose: 15.0 mg/kg/injection, schedule: Q01DX001 (ip), vehicle: suspension in saline) 72 % of control and 75 % of control; (endpoint: median tumor weight change, dose: 15.6 mg/kg/injection, schedule: Q01DX001 (ip), vehicle: suspension in saline) 78 % of control; (endpoint: median tumor weight change, dose: 31.0 mg/kg/injection, schedule: Q01DX001 (ip), vehicle: suspension in saline) 57 % of control; (endpoint: median tumor weight change, dose: 60.0 mg/kg/injection, schedule: Q01DX001 (ip), vehicle: suspension in saline) 7 % of control and 26 % of control; (endpoint: median tumor weight change, dose: 62.0 mg/kg/injection, schedule: Q01DX001 (ip), vehicle: suspension in saline) 3 % of control.
For the compound `CCCCCCCCCCCCCCCCS(=O)CC(O)COC(=O)c1ccc(C(=O)OCC(O)CS(=O)CCCCCCCCCCCCCCCC)cc1` (stereo unspecified), the T/C (endpoint: median tumor weight (est.), dose: 12.5 mg/kg/injection, schedule: Q07DX005 (ip), vehicle: saline + Tween-80 + alcohol) was 68 % of control and 88 % of control; the T/C (endpoint: median tumor weight (est.), dose: 25.0 mg/kg/injection, schedule: Q07DX005 (ip), vehicle: saline + Tween-80 + alcohol) was 69 % of control and 79 % of control; the T/C (endpoint: median tumor weight (est.), dose: 200.0 mg/kg/injection, schedule: Q07DX005 (ip), vehicle: saline + Tween-80 + alcohol) was 48 % of control and 64 % of control; the T/C (endpoint: median tumor weight (est.), dose: 400.0 mg/kg/injection, schedule: Q07DX005 (ip), vehicle: saline + Tween-80 + alcohol) was 78 % of control and 84 % of control.
For `O=C(Nc1cccc2c(OC(=O)C(Cl)Cl)c(N=Nc3ccc(S(=O)(=O)Nc4nccs4)cc3)cc(N=Nc3ccc(S(=O)(=O)Nc4nccs4)cc3)c12)C(Cl)Cl` (tested in a mixture with another compound), the T/C is 106 % of control (endpoint: median tumor weight change, dose: 250.0 mg/kg/injection, schedule: Q01DX001 (ip), vehicle: saline with Tween-80); 124 % of control (endpoint: median tumor weight change, dose: 500.0 mg/kg/injection, schedule: Q01DX001 (ip), vehicle: saline with Tween-80); 37 % of control (endpoint: median tumor weight change, dose: 1000.0 mg/kg/injection, schedule: Q01DX001 (ip), vehicle: saline with Tween-80).
On to `Cn1cnc([N+](=O)[O-])c1[Se]c1nc(N)nc2nc[nH]c12`, for which the T/C is 109 % of control (endpoint: median tumor weight (est.), dose: 6.25 mg/kg/injection, schedule: Q07DX005 (ip), vehicle: water); 104 % of control (endpoint: median tumor weight (est.), dose: 12.5 mg/kg/injection, schedule: Q07DX005 (ip), vehicle: water); 173 % of control (endpoint: median tumor weight (est.), dose: 25.0 mg/kg/injection, schedule: Q07DX005 (ip), vehicle: water); 215 % of control (endpoint: median tumor weight (est.), dose: 50.0 mg/kg/injection, schedule: Q07DX005 (ip), vehicle: water); 107 % of control (endpoint: median tumor weight (est.), dose: 200.0 mg/kg/injection, schedule: Q07DX005 (ip), vehicle: water).
With `COC1OC(CO)C(O)C(NC(=O)N(C)N=O)C1O` (stereo unspecified), where the note is “endpoint: median tumor weight change, dose: 125.0 mg/kg/injection, schedule: Q01DX001 (ip), vehicle: saline”, the T/C is 86 % of control.
For `CC[C@@]1(O)C[C@H](OC2CC(N(C)C)C(OC3CC(O)C(OC4CCC(=O)C(C)O4)C(C)O3)C(C)O2)c2c(cc3c(c2O)C(=O)c2c(O)cccc2C3=O)[C@H]1C(=O)OC` (stereo partly specified), the T/C is, setting by setting: (endpoint: mean tumor weight, dose: 0.75 mg/kg/injection, schedule: Q01DX009 (ip), vehicle: saline) 108 % of control; (endpoint: mean tumor weight, dose: 1.5 mg/kg/injection, schedule: Q01DX009 (ip), vehicle: saline) 75 % of control; (endpoint: mean tumor weight, dose: 3.0 mg/kg/injection, schedule: Q01DX009 (ip), vehicle: saline) 35 % of control; (endpoint: mean tumor weight, dose: 6.0 mg/kg/injection, schedule: Q01DX009 (ip), vehicle: saline) 5 % of control; (endpoint: median tumor weight (est.), dose: 2.97 mg/kg/injection, schedule: Q07DX005 (ip), vehicle: water) 122 % of control; (endpoint: median tumor weight (est.), dose: 4.45 mg/kg/injection, schedule: Q07DX005 (ip), vehicle: water) 87 % of control. The T/C was 92 % of control (endpoint: median tumor weight (est.), dose: 6.67 mg/kg/injection, schedule: Q07DX005 (ip), vehicle: water); 61 % of control (endpoint: median tumor weight (est.), dose: 10.0 mg/kg/injection, schedule: Q07DX005 (ip), vehicle: water); 11 % of control (endpoint: median tumor weight (est.), dose: 15.0 mg/kg/injection, schedule: Q07DX005 (ip), vehicle: water).
In the case of `CN(C)[C@@H]1C(=O)C(C(N)=O)=C(O)[C@@]2(O)C(=O)C3=C(O)c4c(O)ccc(Cl)c4[C@@](C)(O)[C@H]3C[C@@H]12`, the T/C is 86 % of control (endpoint: median tumor weight change, dose: 31.25 mg/kg/injection, schedule: Q01DX001 (ip), vehicle: suspension in saline); 104 % of control (endpoint: median tumor weight change, dose: 62.5 mg/kg/injection, schedule: Q01DX001 (ip), vehicle: suspension in saline); 84 % of control (endpoint: median tumor weight change, dose: 125.0 mg/kg/injection, schedule: Q01DX001 (ip), vehicle: suspension in saline); 83 % of control (endpoint: median tumor weight change, dose: 250.0 mg/kg/injection, schedule: Q01DX001 (ip), vehicle: suspension in saline).
As for `OCC1OC(n2cnc3cc(Cl)c(Cl)cc32)C(O)C1O` (stereo unspecified), the T/C was 79 % of control (endpoint: median tumor weight (est.), dose: 12.5 mg/kg/injection, schedule: Q07DX005 (ip), vehicle: saline with Tween-80); 89 % of control and 92 % of control (endpoint: median tumor weight (est.), dose: 25.0 mg/kg/injection, schedule: Q07DX005 (ip), vehicle: saline with Tween-80); 80 % of control (endpoint: median tumor weight (est.), dose: 200.0 mg/kg/injection, schedule: Q07DX005 (ip), vehicle: saline with Tween-80).
As to `Cc1ccoc1`, the T/C by setting is: (endpoint: median tumor weight change, dose: 20.8 mg/kg/injection, schedule: Q03HX003 (ip), vehicle: saline with Tween-80) 66 % of control; (endpoint: median tumor weight change, dose: 41.6 mg/kg/injection, schedule: Q03HX003 (ip), vehicle: saline with Tween-80) 82 % of control; (endpoint: median tumor weight change, dose: 83.3 mg/kg/injection, schedule: Q03HX003 (ip), vehicle: saline with Tween-80) 62 % of control; (endpoint: median tumor weight change, dose: 166.6 mg/kg/injection, schedule: Q03HX003 (ip), vehicle: saline with Tween-80) 73 % of control.
As for `CC12C(=O)C=CCC1=CCC1C2CCC2(O)C(=O)OC3(C)C4CC5(C)C(COC16OC23C5C6=O)C(=O)O4` (stereo unspecified), the T/C reads like this: (endpoint: median tumor weight change, dose: 250.0 mg/kg/injection, schedule: Q01DX001 (ip), vehicle: Klucel (hydroxypropylcellulose) (HPC)) 96 % of control; (endpoint: median tumor weight change, dose: 500.0 mg/kg/injection, schedule: Q01DX001 (ip), vehicle: Klucel (hydroxypropylcellulose) (HPC)) 35 % of control.
On to `C1CCC2[N-]CC3CCCCC3[N-]CC3CCCCC3[N-]CC3CCCCC3[N-]CC2C1.[Cu]` (stereo unspecified), for which the T/C runs as follows: (endpoint: median tumor weight (est.), dose: 6.25 mg/kg/injection, schedule: Q07DX005 (ip), vehicle: Klucel (hydroxypropylcellulose) (HPC)) 71 % of control; under setting [1], 99 % of control; under setting [2], 80 % of control.
Turning to `CCOC(=O)C1C2OC(=O)C(C(=O)C2CN(CCCl)CCCl)C1C1CC=C(CC2=CCC(C3C4C(=O)OC(C(CN(CCCl)CCCl)C4=O)C3C(=O)OCC)CC2)CC1` (stereo unspecified), the T/C is 49 % of control under setting [1]; 70 % of control under setting [2]; 31 % of control (endpoint: median tumor weight (est.), dose: 50.0 mg/kg/injection, schedule: Q07DX005 (ip), vehicle: Klucel (hydroxypropylcellulose) (HPC)); 1 % of control (endpoint: median tumor weight (est.), dose: 100.0 mg/kg/injection, schedule: Q07DX005 (ip), vehicle: Klucel (hydroxypropylcellulose) (HPC)).
Regarding `Cc1c(N)nc(C(CC(N)=O)NCC(N)C(N)=O)nc1C(=O)NC(C(=O)NC(C)C(O)CC(=O)NC(C(=O)NC(OC1OC(C)C(N)C(O)C1O)C(O)c1nc(-c2nc(C(=O)NCCCC(N)CC(=O)NCCCNCCCCN)cs2)cs1)C(C)O)C(OC1OC(CO)C(O)C(O)C1OC1OC(CO)C(O)C(OC(N)=O)C1O)c1cnc[nH]1` (stereo unspecified), the T/C is, setting by setting: (endpoint: median tumor weight (est.), dose: 2.0 mg/kg/injection, schedule: Q07DX005 (ip), vehicle: saline) 15 % of control; (endpoint: median tumor weight (est.), dose: 4.0 mg/kg/injection, schedule: Q07DX005 (ip), vehicle: saline) 20 % of control; (endpoint: median tumor weight (est.), dose: 8.0 mg/kg/injection, schedule: Q07DX005 (ip), vehicle: saline) 10 % of control.
